Some results are limits rather than exact numbers.

For 29 molecules, IC50 and melting point results are on record in patent US6608069B1, “Phenyl xanthine derivatives” (SmithKline Beecham Corporation, priority 1998, dated 2003).

In the first series the test system is cytokine-stimulated human umbilical vein endothelial cells. Put plainly: Cell Adhesion Assay: adherence of fluorescently-labelled leukocytes to endothelial cell monolayers. It is filed as cell-based. As to conditions: inhibition of cytokine-stimulated adhesion minus basal adhesion; calcein-AM labelled leukocytes on HUVEC monolayers. A digest of the protocol:
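HUVEC monolayers were stimulated with cytokine, and adhesion of calcein-AM-labelled leukocytes was quantified by fluorescence. Inhibition was calculated on cytokine-stimulated adhesion after subtracting basal adhesion of unstimulated cells.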
With `COCCOCCOCCOCCOCCOCCOCCOCCOCCOC(=O)/C=C/c1ccc(-c2nc3c(=O)n(C4CCCCC4)c(=O)n(C4CCCCC4)c3[nH]2)cc1` [Example 66, (E)-4-[1,3-Bis(cyclohexyl)-1,2,3,6-tetrahydro-2,6-dioxo-9H-purin-8-yl]cinnamic Acid Nonaethylene Glycol Methyl Ether Ester], the concentration for half-maximal inhibition (IC50) is 230 ± 100 nM.

On to `COCCOCCOCCOCCOCCOCCOCCOCCOCCNC(=O)/C=C/c1ccc(-c2nc3c(=O)n(CC(C)C)c(=O)n(CC(C)C)c3[nH]2)cc1` [Example 72, (E)-4-(1,3-bis(2-methylpropyl)-1,2,3,6-tetrahydro-2,6-dioxo-9H-purin-8-yl)cinnamic Acid Nonaethylene Glycol Methyl Ether Amide], for which the IC50 was greater than 2000 nM.

Regarding `COCCOCCOCCOCCOCCOCCOCCOCCOCCNC(=O)/C=C/c1ccc(-c2nc3c(=O)n(CC4CCCC4)c(=O)n(CC4CCCC4)c3[nH]2)cc1` [Example 71, (E)-4-(1,3-bis(cyclopentylmethyl)-1,2,3,6-tetrahydro-2,6-dioxo-9H-purin-8-yl)cinnamic Acid Nonaethylene Glycol Methyl Ether Amide], the IC50 is 240 ± 200 nM.

Consider `COCCOCCOCCN(CCOCCOCCOC)C(=O)/C=C/c1ccc(-c2nc3c(=O)n(CC4CCCCC4)c(=O)n(CC4CCCCC4)c3[nH]2)cc1` [Example 95, (E)-4-(1,3-bis(cyclohexylmethyl)-1,2,3,6-tetrahydro-2,6-dioxo-9H-purin-8-yl)cinnamic Acid N,N-Bis Triethylene Glycol Methyl Ether Amide], for which the IC50 was 1700 ± 690 nM.

Turning to `COCCOCCOCCOCCOCCOCCOCCNCc1ccc(-c2nc3c(=O)n(CC4CCCCC4)c(=O)n(CC4CCCCC4)c3[nH]2)cc1` [Example 106, 4-[1,3-Bis(cyclohexylmethyl)-1,2.3,6-tetrahydro-2,6-dioxo-9H-purin-8-yl]benzylamine N-Heptaethylene Glycol Methyl Ether], the IC50 was 110 ± 56 nM.

In the case of `COCCOCCOCCOCCOCCOCCOCCOCCOCCOC(=O)/C=C/c1ccc(-c2nc3c(=O)n(CC4CC5CCC4C5)c(=O)n(CC4CC5CCC4C5)c3[nH]2)cc1` (centres unmarked) [Example 45, (E)-4-(1,3-bis(bicyclo(2.2.1)hept-2-ylmethyl)-1,2,3,6-tetrahydro-2,6-dioxo-9H-purin-8-yl)cinnamic Acid Nonaethylene Glycol Methyl Ether Ester], the IC50 is 42 ± 24 nM.

For `COCCOCCOCCOCCOCCOCCOCCOC(=O)/C=C/c1ccc(-c2nc3c(c(=O)n(CC4CCCCC4)c(=O)n3CC3CCCCC3)n2C)cc1` [Example 111, (E)-4-(1,3-Bis(cyclohexylmethyl)-2,3,6,7-tetrahydro-2,6-dioxo-7-methyl-1H-purin-8-yl)cinnamic Acid Heptaethylene Glycol Methyl Ether Ester], the IC50 was less than 0.1 nM.

As to `C=C(C)Cn1c(-c2ccc(/C=C/C(=O)OCCOCCOCCOCCOCCOCCOCCOCCOCCOC)cc2)nc2c1c(=O)n(CC1CCCCC1)c(=O)n2CC1CCCCC1` [Example 86, (E)-4-(1,3-Bis(cyclohexylmethyl)-2,3,6,7-tetrahydro-2,6-dioxo-7-(2-methyl-2-propenyl)-1H-purin-8-yl)cinnamic Acid Nonaethylene Glycol Methyl Ether Ester], the IC50 was 8 ± 3 nM.

With `COCCOCCOCCOCCOCCOCCOCCOCCOCCOC(=O)CCc1ccc(-c2nc3c(c(=O)n(CC4CCCCC4)c(=O)n3CC3CCCCC3)n2C)cc1` [Example 90, 4-[(1,3-Bis(cyclohexylmethyl)-2,3,6,7-tetrahydro-2,6-dioxo-7-methyl-1H-purin-8-yl)phenyl] propionic Acid Nonaethylene Glycol Methyl Ether Ester], the IC50 is 240 ± 140 nM.

With `COCCOCCOCCOCCOCCOCCOCCOCCOCCOC(=O)c1ccc(-c2nc3c(=O)n(CC4CCCCC4)c(=O)n(CC4CCCCC4)c3[nH]2)cc1` [Example 65, 4-(1,3-bis(cyclohexylmethyl)-1,2,3,6-tetrahydro-2,6-dioxo-9H-purin-8-yl)benzoic Acid Nonaethylene Glycol Methyl Ether Ester], the IC50 was 48 ± 19 nM.

Take `COCCOCCOCCOCCOCCOCCOCCOCCOCCOC(=O)/C=C/c1ccc(-c2nc3c(=O)n(C)c(=O)n(Cc4cccc(C#N)c4)c3[nH]2)cc1` [Example 52, (E)-4-(1-methyl-3-(3-cyanobenzyl)-1,2,3,6-tetrahydro-2,6-dioxo-9H-purin-8-yl)cinnamic Acid Nonaethylene Glycol Methyl Ether Ester]: the IC50 is 410 ± 60 nM.

In the case of `COCCOCCOCCOCCOCCOCCOCCOCCOCCOC(=O)/C=C/c1ccc(-c2nc3c([nH]2)c(=O)n(CC2CCCCC2)c(=O)n3CC2CCCCC2)s1` [Example 98, (E)-3-[5-[1,3-bis(cyclohexylmethyl)-2,3,6,7-tetrahydro-2,6-dioxo-1H-purin-8-yl]-2-thienyl]-2-propenoic Acid Nonaethylene Glycol Methyl Ether Ester], the IC50 is 37 ± 23 nM.

Test system in the next series: not given
Test: not given
Settings: not given
`O=C(O)/C=C/c1ccc(-c2nc3c(=O)n(CC4CC4)c(=O)n(CC4CC4)c3[nH]2)cc1` [Example 5, (E)-4-(1,3-bis(cyclopropylmethyl)-1,2,3,6-tetrahydro-2,6-dioxo-9H-purin-8-yl)cinnamic Acid]: the melting point was greater than 250 °C.

`O=C(O)/C=C/c1ccc(-c2nc3c(=O)n(CC4CC5CCC4C5)c(=O)n(CC4CC5CCC4C5)c3[nH]2)cc1` (centres unmarked) [Example 12, (E)-4-(1,3-bis(bicyclo(2.2.1)hept-2-ylmethyl)-1,2,3,6-tetrahydro-2,6-dioxo-9H-purin-8-yl)cinnamic Acid] displayed a melting point greater than 250 °C.

Molecule `Cn1c(=O)c2nc(-c3ccc(/C=C/C(=O)O)cc3)[nH]c2n(C)c1=O` (hydrate or solvate) [Example 14, (E)-4-(1,3-bis(methyl)-1,2,3,6-tetrahydro-2,6-dioxo-9H-purin-8-yl)cinnamic Acid] gave a melting point greater than 350 °C.

`O=C(O)/C=C/c1cccc(-c2nc3c(=O)n(CC4CCCCC4)c(=O)n(CC4CCCCC4)c3[nH]2)c1` (hydrate or solvate) [Example 31, (E)-3-[1,3-Bis(cyclohexylmethyl)-1,2,3,6-tetrahydro-2,6-dioxo-9H-purin-8-yl]cinnamic Acid] returned a melting point greater than 350 °C.

On to `O=C(O)/C=C/c1ccc(-c2nc3c(=O)n(CCC4CCCCC4)c(=O)n(CCC4CCCCC4)c3[nH]2)cc1` [Example 8, (E)-4-(1,3-bis(2-cyclohexylethyl)-1,2,3,6-tetrahydro-2,6-dioxo-9H-purin-8-yl)cinnamic Acid], for which the melting point was greater than 250 °C.

On to `O=C(O)/C=C/c1ccc(-c2nc3c(=O)n(CCc4ccccc4)c(=O)n(CCc4ccccc4)c3[nH]2)cc1` [Example 22, (E)-4-(1,3-bis(2-phenylethyl)-1,2,3,6-tetrahydro-2,6-dioxo-9H-purin-8-yl)cinnamic Acid], for which the melting point is greater than 350 °C.

In turn, `CCCn1c(=O)c2nc(-c3cccc(/C=C/C(=O)O)c3)[nH]c2n(CCC)c1=O` (hydrate or solvate) [Example 26, (E)-3-[1,3-bis(propyl)-1,2,3,6-tetrahydro-2,6-dioxo-9H-purin-8-yl]cinnamic Acid] returned a melting point greater than 350 °C.

The molecule `O=C(O)/C=C/c1ccc(-c2nc3c(=O)n(Cc4cccc(F)c4)c(=O)n(Cc4cccc(F)c4)c3[nH]2)cc1` [Example 20, (E)-4-(1,3-bis(3-fluorobenzyl)-1,2,3,6-tetrahydro-2,6-dioxo-9H-purin-8-yl)cinnamic Acid] had a melting point greater than 300 °C.

The molecule `O=C(O)/C=C/c1ccc(-c2nc3c(=O)n(Cc4ccccc4F)c(=O)n(Cc4ccccc4F)c3[nH]2)cc1` [Example 21, (E)-4-(1,3-bis(2-fluorobenzyl)-1,2,3,6-tetrahydro-2,6-dioxo-9H-purin-8-yl)cinnamic Acid] returned a melting point greater than 350 °C.

For the molecule `O=C(O)/C=C/c1ccc(-c2nc3c(=O)n(CC4CCCCCC4)c(=O)n(CC4CCCCCC4)c3[nH]2)cc1` (hydrate or solvate) [Example 7, (E)-4-(1,3-bis(cycloheptylmethyl)-1,2,3,6-tetrahydro-2,6-dioxo-9H-purin-8-yl)cinnamic Acid], the melting point was greater than 250 °C.

In turn, `O=C(O)/C=C/c1ccc(-c2nc3c(=O)n(Cc4ccccc4)c(=O)n(Cc4ccccc4)c3[nH]2)cc1` [Example 2, (E)-4-(1,3-bis(benzyl)-1,2,3,6-tetrahydro-2,6-dioxo-9H-purin-8-yl)cinnamic Acid] yielded a melting point greater than 300 °C.

In turn, `O=C(O)/C=C/c1ccc(-c2nc3c(=O)n(Cc4ccc(F)cc4)c(=O)n(Cc4ccc(F)cc4)c3[nH]2)cc1` (hydrate or solvate) [Example 25, (E)-4-(1,3-bis(4-fluorobenzyl)-1,2,3,6-tetrahydro-2,6-dioxo-9H-purin-8-yl)cinnamic Acid] showed a melting point greater than 300 °C.

Molecule `O=C(O)/C=C/c1cccc(-c2nc3c(=O)n(Cc4ccccc4)c(=O)n(Cc4ccccc4)c3[nH]2)c1` (hydrate or solvate) [Example 13, (E)-3-(1,3-bis(benzyl)-1,2,3,6-tetrahydro-2,6-dioxo-9H-purin-8-yl)cinnamic Acid] showed a melting point greater than 350 °C.

Take `CCCn1c(=O)c2nc(-c3ccc(/C=C/C(=O)O)cc3)[nH]c2n(CCC)c1=O` [Example 4, (E)-4-(1,3-bis(propyl)-1,2,3,6-tetrahydro-2,6-dioxo-9H-purin-8-yl)cinnamic Acid]: the melting point is greater than 300 °C.

Take `O=C(O)/C=C/c1ccc(-c2nc3c(=O)n(Cc4cccnc4)c(=O)n(Cc4cccnc4)c3[nH]2)cc1` (hydrate or solvate) [Example 30, (E)-4-(1,3-Bis(3-pyridinylmethyl)-1,2,3,6-tetrahydro-2,6-dioxo-9H-purin-8-yl)cinnamic Acid]: the melting point is greater than 300 °C.

With `O=C(O)/C=C/c1ccc(-c2nc3c(=O)n(Cc4ccccc4)c(=S)n(Cc4ccccc4)c3[nH]2)cc1` [Example 17, (E)-4-(1,3-bis(benzyl)-1,2,3,6-tetrahydro-2-thioxo-6-oxo-9H-purin-8-yl)cinnamic Acid], the melting point is greater than 350 °C.

With `O=C(O)/C=C/c1ccc(-c2nc3c(=O)n(-c4ccccc4)c(=O)n(-c4ccccc4)c3[nH]2)cc1` [Example 9, (E)-4-(1,3-bis(phenyl)-1,2,3,6-tetrahydro-2,6-dioxo-9H-purin-8-yl)cinnamic Acid], the melting point was greater than 375 °C.

As a reminder, the IC50 is the concentration that inhibits the measured activity by half. One may read the melting point as the temperature, or range, at which the solid turns liquid.
